According to patent US20240376148A1, “MEDICAMENT FOR INHIBITING DIETARY OBESITY AND POLYPEPTIDE USED THEREFOR” (INSTITUTE OF ZOOLOGY, CHINESE ACADEMY OF SCIENCES, priority 2022, published 2024):

Experiments:
fecal flora = experiment: 16s amplicon sequencing of fecal flora of SPF mice; type: in vivo; conditions: SPF mice feces
Procedure: At this time, in order to further confirm whether the reason for the weight loss of the SPF mice was related to the change of the ecological structure of the intestinal flora, the feces of mice in NC, HFD and D3 groups collected in the previous SPF mice experiment were analyzed by 16 s amplicon sequencing. sequencing method (reference: Quan, LH, et al. Myristoleic acid produced by enterococci reduces obesity through brown adipose tissue activation. Gut 69, 1239-1247 (2020).) was used to analyze the fecal flora of mice.

[1] = Macaque experiment (high-fat diet); type: in vivo; conditions: rhesus monkeys, high-fat diet (45 kcal % fat), intragastric 0.5 mg-1 mg/Kg once/day, after 6 weeks
Procedure: Rhesus monkeys were used in the macaque experiment. 9 in total, […] at the beginning of the experiment, and each weighed 2.5±0.5 Kg. They were raised individually in the same environment, in a room with suitable temperature and humidity control, and the light/dark cycle was 12 hours, free diet and drinking water, and fed with standard laboratory feed (#2150230401). After 7 days of adaptation, they were randomly assigned to 3 groups with 3 animals in each group, and each group was subjected to different feeding treatments, specifically as follows (see figure e of FIG. 7):
NC group (i.e. normal diet group): fed with standard laboratory feed (#2150230401), free diet and drinking water for 6 weeks.
HFD group (i.e. high-fat diet group): fed with high-fat diet (45 kcal % fat), free diet and drinking water for 6 weeks.
D3 group (i.e. high-fat diet+D3 medicine intragastric administration group): fed with high-fat diet (45 kcal % fat), free diet and drinking water for 6 weeks. HD medicines were selected as D3, intragastrically administrated with D3, 0.5 mg-1 mg/Kg body weight, and intragastrically administrated according to 1.7 ml/Kg body weight, once/day.
Food intake (unit: g/only/week) and body weight were monitored weekly. Fresh excreta of the above animals were collected and stored at −80° C. for further analysis of macaque fecal flora (method as above).

UGN [2] = experiment: ELISA detection of serum UGN in macaques; type: in vivo; conditions: macaque, not significant (p=0.06)
UGN [3] = experiment: ELISA detection of serum UGN in rats; type: in vivo; conditions: P<0.05
Procedure: Serum preparation: mice were placed at room temperature for 2 hours or 4° C. overnight after eye vein blood collection, and centrifuged at 1000× g for 15 minutes at 2-8° C.; the supernatant can be taken for immediate detection; or subpackaged, and the specimens were stored at −20° C. or −80° C., but repeated freezing and thawing should be avoided. Thawed samples should be centrifuged again prior to detecting.
The serum sample diluent was diluted 1:200 times and then tested. The specific operation was as follows: 5 μl of the sample was added to 45 μl of the sample diluent (1:10 dilution) and mixed. Then 15 μl of the above diluent was added to the 285 μl sample diluent (1:20 dilution) and mixed. The sample obtained after the completion of the second step was 1:200 times dilution. The sample incubation, primary antibody, horseradish peroxidase labeled avidin working solution, color development, termination and enzyme labeling detection were carried out in turn.

[4] = GF mice experiment (high-fat diet); type: in vivo, Germ-free (GF) C57B1/6 mice
Description: To further determine the relative contribution of the microbiota to the anti-obesity effects of HD, D3 was chosen for GF mice experiment.
Germ-free (GF) C57B1/6 mice were used in the GF mice experiment, kept in a germ-free isolator, and their GF status was verified by fecal PCR every month. At the beginning of the experiment, germ-free (GF) C57B1/6 mice were 4 weeks old, each weighed 14±1 g. They were raised in a room with suitable temperature and humidity control, and the light/dark cycle was 12 hours, free diet and drinking water, and fed with standard laboratory feed (growth and reproduction feed, SPFSLFZ003, product of SPF (Beijing) Experimental Animal Technology Co., Ltd.), after one week of adaptation, they were randomly assigned to each cage, 4-6 mice per cage. A total of 3 treatments were set up, each with 1 cage, and each treatment was subjected to different feeding treatments, specifically as follows:
NC group (i.e. normal diet group): fed with standard laboratory feed (also known as growth and reproduction feed, SPFSLFZ003), free diet and drinking water for 8 weeks.
HFD group (i.e. high-fat diet group): fed with high-fat diet, the high-fat diet used was rodent feed (containing 60 kcal % fat, D12492), free diet and drinking water for 8 weeks.
D3 group (i.e. high-fat diet+D3 medicine intragastric administration group): fed with high-fat diet, free diet and drinking water. Intragastrically administrated with D3 medicine, 0.75 mg-3 mg/Kg body weight, 0.2 ml, once/day for 8 weeks.
Food intake and body weight were monitored weekly.
After the experiment on GF mice, the mice were killed by cervical dislocation. The heart, liver, spleen, lung, kidney, blood, ileum, cecum, and colon were harvested, immediately placed in liquid nitrogen, and stored at −80° C. for further analysis. Precisely dissected and subcutaneous and visceral fat deposits were weighed.

[5] = Rat feeding experiment (high-fat diet); type: in vivo, Sprague Dawley (SD) rats; conditions: SD rats, 10 weeks
Procedure: Sprague Dawley (SD) rats were used in the rat experiment. At the beginning of the experiment, the rats were 4 weeks old, and each weighed 137±5 g. They were raised in a room with suitable temperature and humidity control, and the light/dark cycle was 12 hours, free diet and drinking water, and fed with standard laboratory feed (a growth and reproduction feed, SPFSLFZ003). After one week of adaptation, they were randomly assigned to a cage. HD treatment was represented by D3, a total of 3 treatments were set up, and each treatment was subjected to different feeding treatments, specifically as follows (see figure a of FIG. 7):
NC group (i.e. normal diet group): 8 rats were fed with standard laboratory feed (also known as growth and reproduction feed, SPFSLFZ003), free diet and drinking water for 10 weeks.
HFD group (i.e. high-fat diet group): 8 rats were fed with high-fat diet, the high-fat diet used was rodent feed (containing 60 kcal % fat, D12492), free diet and drinking water for 10 weeks.
D3 group (i.e. high-fat diet+D3 medicine intragastric administration group): 10 rats were fed with high-fat diet, free diet and drinking water. Intragastrically administrated with HD (choose D3), 0.5 mg-2 mg/Kg body weight, 0.5 ml, once/day for 10 weeks.
Body weights were monitored weekly. […]

RTRYCRTGR [D3]
abundance of Bacteroides and A. muciniphila (LEfSc analysis) (fecal flora): significant increase
abundance of Prevotella, Desulfovibrio and Lawsonia (LEfSc analysis) (fecal flora): significant decrease
fecal flora (diversity analysis and PCOA) vs HFD group (fecal flora): significantly different from that of the HFD group
growth rate of body weight [1]: decreased significantly
UGN levels in the serum (UGN [2]): Increased
level of Guca2b in rat serum (UGN [3]): significantly increased
subcutaneous and visceral fat weight (inguinal subcutaneous, epididymis, perinephric) vs HFD group ([4]; 8 weeks): significantly lower than that of the HFD group
weekly feed intake vs control HFD group ([4]; after 3-4 weeks): significant gap
body weight compared with the HFD group ([4]; intragastric 0.75 mg-3 mg/Kg once/day, 8 weeks): decreased significantly
decrease of growth rate of body weight ([5]; vs HFD group): 8.96±3.11%
body weight compared with the HFD group ([5]; intragastric 0.5 mg-2 mg/Kg once/day): significantly lower than that of the HFD group
